Measured values reported in US8999987B2, “Dihydropyridophthalazinone inhibitors of poly(ADP-ribose)polymerase (PARP)” (BioMarin Pharmaceutical Inc., priority 2008, dated 2015).

Experiments:
[1] = tested on: BRCA2-deficient cell line V-C8; conditions: V-C8 compared with the BRCA2 wild type control; cited from earlier work
[2] = molecular target: PARP-1 (Homo sapiens, UniProt P09874); conditions: PARP-1 inhibitor; cited from earlier work
[3] = tested on: CAPAN-1 cells; conditions: CAPAN-1 cells in DMEM with FCS (20% v/v); cited from earlier work
[4] = tested on: BRCA2-deficient tumors; conditions: cited from earlier work
[5] = tested on: MX-1 xenograft model; experiment: Xenograft combination study with Cisplatin; assay type: in vivo, mice; conditions: MX-1 breast xenograft model; comparable doses of cisplatin or PARP inhibitor alone
Procedure: Female athymic nu/nu mice (8-10 weeks old) were used for all in vivo xenograft studies. Mice were quarantined for at least 1 week before experimental manipulation. Exponentially growing cells or in vivo passaged tumor fragments were implanted subcutaneously at the right flank of nude mice. Tumor-bearing mice were randomized according to tumor size into 6-8 mice/group in each study (average tumor size ˜150 mm^3). Mice were observed daily for survival and tumors were measured twice weekly by caliper in two dimensions and converted to tumor mass using the formula for a prolate ellipsoid (V=0.5 a×b^2), where a and b are the long and short diameters of the tumor, respectively, and assuming unit density (1 mm^3=1 mg).
Combination study: PARP inhibitory compounds described herein in vehicle 10% DMAc/6% Solutal/84% PBS, were either administered orally, once daily for 5 days with Temozolomide (17 mg/kg or 34 mg/kg, p.o., qd×5, 30 min after each dose of compounds) in SW620 xenograft model or dosed orally, once daily for 8 days with 6 mg/kg Cisplatin (once by ip on day 3, 30 min after first dose of PARP inhibitors) in MX-1 xenograft model. Mice were observed and individual tumor was measured for 30 more days after the last dosing of PARP inhibitory compounds.

Chain of PARP-1 (P09874 whole entry, species assumed): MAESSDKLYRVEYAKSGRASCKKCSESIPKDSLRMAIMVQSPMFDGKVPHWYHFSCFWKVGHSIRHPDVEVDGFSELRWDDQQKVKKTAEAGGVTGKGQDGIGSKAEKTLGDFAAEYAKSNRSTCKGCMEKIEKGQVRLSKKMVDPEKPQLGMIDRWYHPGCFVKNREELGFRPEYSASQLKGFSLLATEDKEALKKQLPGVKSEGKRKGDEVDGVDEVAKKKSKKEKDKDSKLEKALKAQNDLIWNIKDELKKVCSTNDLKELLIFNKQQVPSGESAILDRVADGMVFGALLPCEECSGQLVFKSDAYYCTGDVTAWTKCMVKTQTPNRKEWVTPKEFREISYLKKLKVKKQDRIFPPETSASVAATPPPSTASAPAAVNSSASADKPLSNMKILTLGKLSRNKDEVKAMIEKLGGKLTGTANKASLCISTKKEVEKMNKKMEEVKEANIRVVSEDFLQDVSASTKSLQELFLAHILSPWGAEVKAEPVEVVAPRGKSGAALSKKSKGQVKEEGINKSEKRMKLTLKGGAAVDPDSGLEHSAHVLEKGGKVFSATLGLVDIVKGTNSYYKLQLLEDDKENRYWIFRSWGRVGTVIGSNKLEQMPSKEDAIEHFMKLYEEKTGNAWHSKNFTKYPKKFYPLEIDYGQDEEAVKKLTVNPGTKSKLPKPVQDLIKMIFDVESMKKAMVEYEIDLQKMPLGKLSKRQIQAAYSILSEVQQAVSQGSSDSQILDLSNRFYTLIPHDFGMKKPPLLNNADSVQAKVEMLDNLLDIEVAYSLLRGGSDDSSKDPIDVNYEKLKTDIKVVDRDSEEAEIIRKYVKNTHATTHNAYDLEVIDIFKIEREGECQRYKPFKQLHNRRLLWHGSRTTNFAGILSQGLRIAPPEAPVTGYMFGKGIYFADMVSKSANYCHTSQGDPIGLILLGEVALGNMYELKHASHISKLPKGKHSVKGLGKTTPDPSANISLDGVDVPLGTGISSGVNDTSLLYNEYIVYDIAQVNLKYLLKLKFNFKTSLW

Row | Structure (SMILES) | sensitivity in clonogenic survival assay [1] | Ki [2] [nM] | sensitivity in clonogenic survival assay [3] | in vivo efficacy, tumor growth [4] | tumor inhibition, agent alone [5]
1 | CN(C)Cc1ccc(-c2nc3cccc4c3n2CCNC4=O)cc1 [AG14361] | exhibited sensitivity | 5 |  |  | 
2 | O=C1CCC(=O)N1c1cc(Cc2n[nH]c(=O)c3ccccc23)ccc1F [KU0058684] |  |  | showing sensitivity to PARP inhibition | shown in vivo efficacy in blocking the growth of BRCA2-deficient tumors | 
3 | Cc1nc2c(O)cccc2c(=O)[nH]1 [NU1025] | exhibited sensitivity | 50 |  |  | 
4 | N.N.[Cl][Pt][Cl] [cisplatin] |  |  |  |  | only small to modest tumor inhibition
